Test results reported in BindingDB's records for doi:10.1021/jm00057a007 (Kyowa Hakko Kogyo, 1993).
Where a name gives a salt, the structure may show the parent alone.

assay: Inhibition of guinea pig acetylcholinesterase

SMILES	IC50
CC1CCCN(Cc2ccc(CNCCN3CCN=C3C(C#N)C#N)o2)C1 (stereo unspecified) [2-[1-(2-{[5-(3-Methyl-piperidin-1-ylmethyl)-furan-2-ylmethyl]-amino}-ethyl)-imidazolidin-2-ylidene]-malononitrile]	370 nM
CN(C)Cc1ccc(CNCCN2CCN=C2C(C#N)C#N)o1 [2-(1-{2-[(5-Dimethylaminomethyl-furan-2-ylmethyl)-amino]-ethyl}-imidazolidin-2-ylidene)-malononitrile]	390 nM
N#CC(C#N)C1=NCCN1CCNCc1ccc(CN2CCC(O)CC2)o1 [2-[1-(2-{[5-(4-Hydroxy-piperidin-1-ylmethyl)-furan-2-ylmethyl]-amino}-ethyl)-imidazolidin-2-ylidene]-malononitrile]	390 nM
N#CC(C#N)C1=NCCN1CCNCc1ccc(CN2CCCC(O)C2)o1 (stereo unspecified) [2-[1-(2-{[5-(3-Hydroxy-piperidin-1-ylmethyl)-furan-2-ylmethyl]-amino}-ethyl)-imidazolidin-2-ylidene]-malononitrile]	370 nM

assay: Inhibition of guinea pig acetylcholinesterase

SMILES	IC50
N#CC(C#N)C1=NCCN1CCNCc1ccc(CN2CCSCC2)o1 [2-(1-{2-[(5-Thiomorpholin-4-ylmethyl-furan-2-ylmethyl)-amino]-ethyl}-imidazolidin-2-ylidene)-malononitrile]	1500 nM
N#CC(C#N)C1=NCCN1CCNCc1ccc(CN2CCCCCC2)o1	120 nM
CC1CCCCN1Cc1ccc(CNCCN2CCN=C2C(C#N)C#N)o1 (stereo unspecified) [2-[1-(2-{[5-(2-Methyl-piperidin-1-ylmethyl)-furan-2-ylmethyl]-amino}-ethyl)-imidazolidin-2-ylidene]-malononitrile]	540 nM
CN=C(NCCNCc1ccc(CN(C)C)o1)C(C#N)C#N [2-({2-[(5-Dimethylaminomethyl-furan-2-ylmethyl)-amino]-ethylamino}-methylamino-methylene)-malononitrile]	630 nM
CN=C(NCCNCc1ccc(CN(C(C)C)C(C)C)o1)C(C#N)C#N [2-{[2-({5-[(Diisopropylamino)-methyl]-furan-2-ylmethyl}-amino)-ethylamino]-methylamino-methylene}-malononitrile]	2100 nM
N#CC(C#N)c1nc2ccccc2n1CCNCc1ccc(CN2CCCCC2)o1 [2-(1-{2-[(5-Piperidin-1-ylmethyl-furan-2-ylmethyl)-amino]-ethyl}-1,3-dihydro-benzoimidazol-2-ylidene)-malononitrile]	73 nM
N#CC(C#N)C1=NCCN1CCNCc1ccc(CN2CCOCC2)o1 [2-(1-{2-[(5-Morpholin-4-ylmethyl-furan-2-ylmethyl)-amino]-ethyl}-imidazolidin-2-ylidene)-malononitrile]	11000 nM
CCN(CC)CCNC(=O)c1cc(Cl)c(N)cc1OC [4-amino-5-chloro-N-[2-(diethylamino)ethyl]-2-methoxy-benzamide;hydrochloride]	> 20000 nM
N#CC(C#N)C1=NCCN1CCNCc1ccc(CN2CCCC2)o1 [2-(1-{2-[(5-Pyrrolidin-1-ylmethyl-furan-2-ylmethyl)-amino]-ethyl}-imidazolidin-2-ylidene)-malononitrile]	80 nM
CCN(CC)Cc1ccc(CNCCN2CCN=C2C(C#N)C#N)o1	600 nM
CCN(C)Cc1ccc(CNCCN2CCN=C2C(C#N)C#N)o1 [2-{1-[2-({5-[(Ethyl-methyl-amino)-methyl]-furan-2-ylmethyl}-amino)-ethyl]-imidazolidin-2-ylidene}-malononitrile]	430 nM
CC1CCN(Cc2ccc(CNCCN3CCN=C3C(C#N)C#N)o2)CC1 [2-[1-(2-{[5-(4-Methyl-piperidin-1-ylmethyl)-furan-2-ylmethyl]-amino}-ethyl)-imidazolidin-2-ylidene]-malononitrile]	290 nM
N#CC(C#N)C1=NCCN1CCNCc1ccc(CN2CC=CCC2)o1	95 nM
CNc1c(NCCNCc2ccc(CN3CCCCC3)o2)c(=O)c1=O [3-Methylamino-4-{2-[(5-piperidin-1-ylmethyl-furan-2-ylmethyl)-amino]-ethylamino}-cyclobut-3-ene-1,2-dione]	9300 nM
CN=C(NCCNCc1ccc(COC)o1)C(C#N)C#N [2-({2-[(5-Methoxymethyl-furan-2-ylmethyl)-amino]-ethylamino}-methylamino-methylene)-malononitrile]	> 20000 nM
O=c1[nH]c2ccccc2n1CCNCc1ccc(CN2CCCCC2)o1 [1-{2-[(5-Piperidin-1-ylmethyl-furan-2-ylmethyl)-amino]-ethyl}-1,3-dihydro-benzoimidazol-2-one]	1200 nM
CN=C(NCCNCc1ccc(CN2CCCCC2)o1)C(C#N)C#N	830 nM
N#CC(C#N)C1=NCCN1CCNCc1ccc(CN2CCCCC2)o1 [2-(1-{2-[(5-Piperidin-1-ylmethyl-furan-2-ylmethyl)-amino]-ethyl}-imidazolidin-2-ylidene)-malononitrile]	30 nM
CN(C)Cc1ccc(CNCCN2CCN=C2C[N+](=O)[O-])o1 [(5-Dimethylaminomethyl-furan-2-ylmethyl)-[2-(2-nitromethylene-imidazolidin-1-yl)-ethyl]-amine]	> 2000 nM
COc1cc(N)c(Cl)cc1C(=O)NCCNCc1ccc(CN(C)C)o1 [4-Amino-5-chloro-N-{2-[(5-dimethylaminomethyl-furan-2-ylmethyl)-amino]-ethyl}-2-methoxy-benzamide]	3100 nM
CN=C(NCCNCc1ccc(CN2CCCC2)o1)C(C#N)C#N [2-(Methylamino-{2-[(5-pyrrolidin-1-ylmethyl-furan-2-ylmethyl)-amino]-ethylamino}-methylene)-malononitrile]	280 nM
COC1CCCN(Cc2ccc(CNCCN3CCN=C3C(C#N)C#N)o2)C1 (stereo unspecified)	3300 nM
